Values after ≈ are worked out from the molar mass of the structure shown.
Columns and labels:
[1] = Inhibition of NS5A in HCV genotype-1a infected in human HuH7 cells by luciferase reporter gene assay; type: cell-based, Hepatitis C virus subtype 1a; conditions: Hepatitis C virus, Huh-7
[2] = Inhibition of NS5A in HCV genotype-1b infected in human HuH7 cells by luciferase reporter gene assay; type: cell-based, Hepatitis C virus subtype 1b; conditions: Hepatitis C virus, Huh-7
[3] = Volume of distribution at steady state in Sprague-Dawley rat at 1 mg/kg, iv; type: ADME, organism-based; parameters: dose 1 mg/kg, route intravenous; conditions: in vivo, read-out: Vdss
[4] = Half life in Sprague-Dawley rat at 1 mg/kg, iv; type: ADME, organism-based; parameters: dose 1 mg/kg, route intravenous; conditions: in vivo
[5] = AUClast in Sprague-Dawley rat at 1 mg/kg, iv; type: ADME, organism-based; parameters: time 0 - last, dose 1 mg/kg, route intravenous; conditions: plasma
[6] = Tmax in Sprague-Dawley rat at 5 mg/kg, po; type: ADME, organism-based; parameters: dose 5 mg/kg, route oral; conditions: in vivo
[7] = Cmax in Sprague-Dawley rat at 5 mg/kg, po; type: ADME, organism-based; parameters: dose 5 mg/kg, route oral; conditions: in vivo
[8] = AUClast in Sprague-Dawley rat at 5 mg/kg, po; type: ADME, organism-based; parameters: time 0 - last, dose 5 mg/kg, route oral; conditions: plasma
[9] = Oral bioavailability in Sprague-Dawley rat at 5 mg/kg; type: ADME, organism-based; conditions: in vivo
[10] = Drug uptake in Sprague-Dawley rat liver at 5 mg/kg, po after 4 hrs; type: ADME, organism-based; parameters: dose 5 mg/kg, route oral; conditions: read-out: Drug uptake
[11] = Plasma concentration in Sprague-Dawley rat […] at 5 mg/kg, po after 4 hrs; type: ADME, organism-based; parameters: dose 5 mg/kg, route oral
[12] = Solubility of the compound at pH 7.4 by UV detection method; type: physicochemical; conditions: buffer
[13] = Clearance in Sprague-Dawley rat at 1 mg/kg, iv; type: ADME, organism-based; parameters: dose 1 mg/kg, route intravenous; conditions: in vivo
[14] = Half life in Sprague-Dawley rat at 2 mg/kg, iv; type: ADME, organism-based; parameters: dose 2 mg/kg, route intravenous; conditions: in vivo
[15] = AUClast in Sprague-Dawley rat at 2 mg/kg, iv; type: ADME, organism-based; parameters: time 0 - last, dose 2 mg/kg, route intravenous; conditions: plasma
[16] = Tmax in Sprague-Dawley rat at 10 mg/kg, po; type: ADME, organism-based; parameters: dose 10 mg/kg, route oral; conditions: in vivo
[17] = Cmax in Sprague-Dawley rat at 10 mg/kg, po; type: ADME, organism-based; parameters: dose 10 mg/kg, route oral; conditions: in vivo
[18] = AUClast in Sprague-Dawley rat at 10 mg/kg, po; type: ADME, organism-based; parameters: time 0 - last, dose 10 mg/kg, route oral; conditions: plasma
[19] = Oral bioavailability in Sprague-Dawley rat at 10 mg/kg; type: ADME, organism-based; conditions: in vivo
[20] = Drug uptake in Sprague-Dawley rat liver at 10 mg/kg, po after 4 hrs; type: ADME, organism-based; parameters: dose 10 mg/kg, route oral; conditions: read-out: Drug uptake
[21] = Plasma concentration in Sprague-Dawley rat at 10 mg/kg, po after 4 hrs; type: ADME, organism-based; parameters: dose 10 mg/kg, route oral
[22] = Clearance in Sprague-Dawley rat at 2 mg/kg, iv; type: ADME, organism-based; parameters: dose 2 mg/kg, route intravenous; conditions: in vivo
[23] = Volume of distribution at steady state in Sprague-Dawley rat at 2 mg/kg, iv; type: ADME, organism-based; parameters: dose 2 mg/kg, route intravenous; conditions: in vivo, read-out: Vdss

Compound	EC50 [1] [nM]	EC50 [2] [nM]	further results
COC(=O)N[C@@H](C(=O)N1CCC[C@H]1c1ncc(-c2cc(F)c(N3CCC(c4cnc([C@@H]5CCCN5C(=O)[C@H](NC(=O)OC)c5ccccc5)[nH]4)CC3)c(F)c2)[nH]1)c1ccccc1	14	0.033	
COC(=O)N[C@H](C(=O)N1CCC[C@H]1c1ncc(-c2ccc([C@H]3CC[C@H](c4cnc([C@@H]5CCCN5C(=O)[C@@H](NC(=O)OC)C(C)C)[nH]4)CC3)cc2)[nH]1)C(C)C	2	0.05	Vd [3]: 1.53 L/kg; half-life [4]: 1.33 h; AUC(0-t) [5]: 706 ng·h/mL; Tmax [6]: 0.67 h; Cmax [7]: 554 ng/mL; AUC(0-t) [8]: 1540 ng·h/mL; bioavailability [9]: 44.2%; concentration at 4 h [10]: 665 ng/mL; concentration at 4 h [11]: 108 ng/mL; solubility [12]: 66.3 µg/mL (≈ 89 µM); clearance [13]: 23.7 mL/min/kg
CC[C@H](C)[C@H](NC(=O)OC)C(=O)N1CCC[C@H]1c1ncc(-c2ccc([C@H]3CC[C@H](c4cnc([C@@H]5CCCN5C(=O)[C@@H](NC(=O)OC)[C@@H](C)CC)[nH]4)CC3)cc2)[nH]1	4.1	0.05	
COC(=O)N[C@H](C(=O)N[C@@H](C)c1ncc(C2CCN(c3c(F)cc(-c4cnc([C@@H]5CCCN5C(=O)[C@@H](NC(=O)OC)C(C)C)[nH]4)cc3F)CC2)[nH]1)C(C)C	68	0.14	
COC(=O)N[C@H](C(=O)N1CCC[C@H]1c1ncc(-c2ccc([C@H]3CC[C@H](c4cnc([C@@H]5CCCN5C(=O)[C@@H](NC(=O)OC)[C@@H](C)OC)[nH]4)CC3)cc2)[nH]1)[C@@H](C)OC	1.4	0.19	
COC(=O)N[C@H](C(=O)N[C@H](c1ncc(C2CCN(c3c(F)cc(-c4cnc([C@@H]5CCCN5C(=O)[C@@H](NC(=O)OC)C(C)C)[nH]4)cc3F)CC2)[nH]1)C(C)C)C(C)C	25	0.07	
COC(=O)N[C@@H](C)C(=O)N1CCC[C@H]1c1ncc(-c2ccc([C@H]3CC[C@H](c4cnc([C@@H]5CCCN5C(=O)[C@H](C)NC(=O)OC)[nH]4)CC3)cc2)[nH]1	7.2	0.33	
COC(=O)N[C@H](C(=O)N(C)[C@@H](C)c1ncc(C2CCN(c3c(F)cc(-c4cnc([C@@H]5CCCN5C(=O)[C@@H](NC(=O)OC)C(C)C)[nH]4)cc3F)CC2)[nH]1)C(C)C	> 100	0.54	
COC(=O)N[C@H](C(=O)N[C@@H](C)c1ncc(-c2cc(F)c(N3CCC(c4cnc([C@@H]5CCCN5C(=O)[C@@H](NC(=O)OC)C(C)C)[nH]4)CC3)c(F)c2)[nH]1)C(C)C	39	0.27	
COC(=O)N[C@@H](C(=O)N1CCC[C@H]1c1ncc(-c2ccc(N3CCC(c4cnc([C@@H]5CCCN5C(=O)[C@H](NC(=O)OC)c5ccccc5)[nH]4)CC3)c(F)c2)[nH]1)c1ccccc1	38	0.095	half-life [14]: 1.9 h; AUC(0-t) [15]: 2060 ng·h/mL; Tmax [16]: 0.67 h; Cmax [17]: 41.5 ng/mL; AUC(0-t) [18]: 109 ng·h/mL; bioavailability [19]: 1.2%; concentration at 4 h [20]: 4 ng/mL; concentration at 4 h [21]: 8.4 ng/mL; clearance [22]: 17.7 mL/min/kg; Vd [23]: 1.39 L/kg
COC(=O)N[C@H](C(=O)N1CCC[C@H]1c1ncc([C@H]2CC[C@H](c3ccc(-c4cnc([C@@H]5CCCN5C(=O)[C@H](NC(=O)OC)c5ccccc5)[nH]4)cc3)CC2)[nH]1)C(C)C	4.4	0.088	
COC(=O)N[C@H](C(=O)N1CCC[C@H]1c1ncc(-c2cc(F)c(N3CCC(C)(c4cnc([C@@H]5CCCN5C(=O)[C@@H](NC(=O)OC)C(C)C)[nH]4)CC3)c(F)c2)[nH]1)C(C)C	> 100	0.081	
COC(=O)N[C@H](C(=O)N1CCC[C@H]1c1ncc(-c2cc(F)c(N3CCC(c4cnc([C@@H]5CCCN5C(=O)[C@@H](NC(=O)OC)C(C)C)[nH]4)CC3)c(F)c2)[nH]1)C(C)C	3.8	0.054	solubility [12]: 87.5 µg/mL (≈ 112 µM)
COC(=O)N[C@H](C(=O)N1CCC[C@H]1c1ncc(-c2ccc([C@H]3CC[C@H](c4cnc([C@@H]5CCCN5C(=O)[C@H](C(C)C)N(C)C)[nH]4)CC3)cc2)[nH]1)C(C)C	> 100	0.7	
COC(=O)N[C@H](C(=O)N1CCC[C@H]1c1ncc(-c2cc(F)c(N3CCC(c4cnc([C@@H]5CCCCN5C(=O)[C@@H](NC(=O)OC)C(C)C)[nH]4)CC3)c(F)c2)[nH]1)C(C)C	34	0.09	
COC(=O)N[C@@H](C(=O)N1CCC[C@H]1c1ncc(-c2ccc([C@H]3CC[C@H](c4cnc([C@@H]5CCCN5C(=O)[C@@H](c5ccccc5)N(C)C)[nH]4)CC3)cc2)[nH]1)c1ccccc1	1.4	0.11	Tmax [16]: 1.67 h; Cmax [17]: 54.1 ng/mL; AUC(0-t) [18]: 255 ng·h/mL
COC(=O)N[C@H](C(=O)N1CCC[C@H]1c1ncc(-c2ccc([C@H]3CC[C@H](c4cnc([C@@H]5CCCN5C(=O)[C@H](NC(=O)OC)c5ccccc5)[nH]4)CC3)cc2)[nH]1)C(C)C	2.6	0.05	
COC(=O)N[C@H](C(=O)N1CCC[C@H]1c1ncc(-c2ccc(-c3ccc(-c4cnc([C@@H]5CCCN5C(=O)[C@@H](NC(=O)OC)C(C)C)[nH]4)cc3)cc2)[nH]1)C(C)C [DACLATASVIR]	0.14	0.023	solubility [12]: 6.8 µg/mL (≈ 9.2 µM)
COC(=O)N[C@H](C(=O)N1CCC[C@H]1c1ncc(-c2ccc([C@H]3CC[C@](C)(c4cnc([C@@H]5CCCN5C(=O)[C@@H](NC(=O)OC)C(C)C)[nH]4)CC3)cc2)[nH]1)C(C)C	> 100	1.3	
COC(=O)N[C@@H](C(=O)N1CCC[C@H]1c1ncc(-c2ccc([C@H]3CC[C@H](c4cnc([C@@H]5CCCN5C(=O)[C@H](NC(=O)OC)c5ccccc5)[nH]4)CC3)cc2)[nH]1)c1ccccc1	5.2	0.061	
COC(=O)N[C@@H](C(=O)N1CCC[C@H]1c1ncc(-c2cc(F)c(N3CCC(c4cnc([C@@H]5COCCN5C(=O)[C@H](NC(=O)OC)c5ccccc5)[nH]4)CC3)c(F)c2)[nH]1)c1ccccc1	38	0.05	
COC(=O)N[C@@H](C(=O)N1CCOC[C@H]1c1ncc(-c2cc(F)c(N3CCC(c4cnc([C@@H]5CCCN5C(=O)[C@H](NC(=O)OC)c5ccccc5)[nH]4)CC3)c(F)c2)[nH]1)c1ccccc1	73	0.04	
COC(=O)N[C@H](C(=O)N1CCC[C@H]1c1ncc(-c2ccc([C@H]3CC[C@H](c4cnc([C@@H]5CCCN5C(=O)[C@@H](c5ccccc5)N(C)C)[nH]4)CC3)cc2)[nH]1)C(C)C	1.7	0.14	
COC(=O)N[C@@H](C(=O)N1CCC[C@H]1c1ncc(-c2cc(F)c(N3CCC(c4cnc([C@@H]5CCCN5C(=O)[C@H](NC(=O)OC)C(C)C)[nH]4)CC3)c(F)c2)[nH]1)C(C)C	> 100	> 3.7	
COC(=O)N[C@H](C(=O)N1CCC[C@H]1c1ncc(-c2ccc([C@H]3CC[C@H](c4cnc([C@@H]5CCCN5C(=O)[C@@H](NC(=O)OC)C5CC5)[nH]4)CC3)cc2)[nH]1)C1CC1	4.5	0.86	

— ChEMBL document CHEMBL3351465, “Discovery of functionalized bisimidazoles bearing cyclic aliphatic-phenyl motifs as HCV NS5A inhibitors” (Bioorg Med Chem Lett, 2014)
